# Assay results reported in US9221827B2, “Antimicrobial compounds and methods of making and using the same” (Melinta Therapeutics, Inc., priority 2011, dated 2015).
# System: Escherichia coli strain ATCC25922
# Test: standard microdilution assay to determine minimum inhibitory concentrations (MICs)
# Type: cell-based
# Conditions: Escherichia coli strain ATCC25922, microdilution
# Experimental: The in vitro activity of the compounds of the present invention can be determined. Antimicrobial testing is typically performed to determine the minimum inhibitory concentration (MIC). Minimum inhibitory concentrations (MICs) are determined by the microdilution method in a final volume of 100 μl according to protocols outlined by The Clinical and Laboratory Standards Institute (CLSI). Performance standards for reference strains are assessed within the same experimental design to maintain quality control. See, for example, Clinical Laboratory Standards Institute: Methods for dilution antimicrobial susceptibility tests for bacteria that grow aerobically M7-A8. Approved Standard-Eighth Edition. Wayne, Pa.: CLSI; December 2008; and Clinical Laboratory Standards Institute: Performance Standards for Antimicrobial Susceptibility Testing M100-S20; Approved Standard-Twentieth Edition. Wayne, Pa.: CLSI; June 2010.
# The compounds of the present invention were tested for antimicrobial activity. […] The compounds were run against Escherichia coli strain ATCC25922 using a standard microdilution assay to determine minimum inhibitory concentrations (MICs). […] A “N/A” means that data is unavailable. It will be recognized by one skilled in the art that the compounds can be assessed against other bacterial organisms and that the presentation of data for activity against Escherichia coli is illustrative and in no way is intended to limit the scope of the present invention. The compounds of the present invention can be assayed against a range of other microorganisms depending upon the performance activity desired to be gathered. Furthermore, the “+”, “−”, and “N/A” representation and the selection of a cutoff value of 16 micrograms/ml is also illustrative and in no way is intended to limit the scope of the present invention.
row,SMILES,E. coli ATCC25922 MIC
1,CC(C)c1cc(CCCCN)cc(-c2cc3cn(-c4ccc([C@H](C)NCCCNC(=N)N)cc4)c(=O)nc3[nH]2)c1 [Compound 78],+ (a “+” indicates that the compound has an MIC value of 16 micrograms/ml or less)
2,NCc1cc(CCCO)cc(-c2cc3cn(-c4ccc(CNCCCN=C(N)N)cc4)c(=O)nc3[nH]2)c1 [Compound 79],+ (a “+” indicates that the compound has an MIC value of 16 micrograms/ml or less)
3,NCCCCc1cc(-c2cc3cn(-c4ccc(CNCCCN=C(N)N)c(F)c4)c(=O)nc3[nH]2)cc(C(F)(F)F)c1 [Compound 80],+ (a “+” indicates that the compound has an MIC value of 16 micrograms/ml or less)
4,NC(N)=NCCCNCc1ccc(-n2cc3cc(-c4cc(CCCO)ccc4Cl)[nH]c3nc2=O)cc1 [Compound 82],+ (a “+” indicates that the compound has an MIC value of 16 micrograms/ml or less)
5,COc1cc(F)c(-c2cc3cn(-c4ccc(CNCCCN=C(N)N)cc4)c(=O)nc3[nH]2)cc1CCCCN [Compound 83],+ (a “+” indicates that the compound has an MIC value of 16 micrograms/ml or less)
6,NCCCCc1c(F)ccc(-c2cc3cn(-c4ccc(CNCCCN=C(N)N)cc4)c(=O)nc3[nH]2)c1F [Compound 84],+ (a “+” indicates that the compound has an MIC value of 16 micrograms/ml or less)
7,NCCCCc1cc(OC(F)(F)F)cc(-c2cc3cn(-c4ccc(CNCCCN=C(N)N)cc4F)c(=O)nc3[nH]2)c1 [Compound 90],+ (a “+” indicates that the compound has an MIC value of 16 micrograms/ml or less)
8,NCCCCc1cc(Cl)c(F)c(-c2cc3cn(-c4ccc(CNCCCN=C(N)N)cc4)c(=O)nc3[nH]2)c1 [Compound 91],+ (a “+” indicates that the compound has an MIC value of 16 micrograms/ml or less)
9,NCCCCc1cc(SC(F)(F)F)c(Cl)c(-c2cc3cn(-c4ccc(CNCCCN=C(N)N)cc4)c(=O)nc3[nH]2)c1 [Compound 92],+ (a “+” indicates that the compound has an MIC value of 16 micrograms/ml or less)
10,CC(CCN)Cc1cc(OC(F)(F)F)cc(-c2cc3cn(-c4ccc(CNCCCNC(=N)N)cc4)c(=O)nc3[nH]2)c1 (stereo not drawn) [Compound 93],+ (a “+” indicates that the compound has an MIC value of 16 micrograms/ml or less)
11,CC(CCCN)c1cc(OC(F)(F)F)cc(-c2cc3cn(-c4ccc(CNCCCNC(=N)N)cc4)c(=O)nc3[nH]2)c1 (stereo not drawn) [Compound 94],+ (a “+” indicates that the compound has an MIC value of 16 micrograms/ml or less)
12,C=C(CCCN)c1cc(OC(F)(F)F)cc(-c2cc3cn(-c4ccc(CNCCCNC(=N)N)cc4)c(=O)nc3[nH]2)c1 [Compound 95],+ (a “+” indicates that the compound has an MIC value of 16 micrograms/ml or less)
13,N=C(N)NCCCNCc1ccc(-n2cc3cc(-c4cc(CCC5(CN)CCC5)cc(OC(F)(F)F)c4)[nH]c3nc2=O)cc1 [Compound 96],+ (a “+” indicates that the compound has an MIC value of 16 micrograms/ml or less)
14,CC(C)c1cc(CCC(C)(C)CN)cc(-c2cc3cn(-c4ccc(CNCCCNC(=N)N)cc4)c(=O)nc3[nH]2)c1 [Compound 97],+ (a “+” indicates that the compound has an MIC value of 16 micrograms/ml or less)
15,CC(C)c1cc(CCC2(CN)CCC2)cc(-c2cc3cn(-c4ccc(CNCCCNC(=N)N)cc4)c(=O)nc3[nH]2)c1 [Compound 103],+ (a “+” indicates that the compound has an MIC value of 16 micrograms/ml or less)
16,CC(C)(CN)CCc1cc(OC(F)(F)F)cc(-c2cc3cn(-c4ccc(CNCCCNC(=N)N)cc4)c(=O)nc3[nH]2)c1 [Compound 104],+ (a “+” indicates that the compound has an MIC value of 16 micrograms/ml or less)
17,N=C(N)NCCCNCc1ccc(-n2cc3cc(-c4cc(CCCCN)cc(OC(F)(F)F)c4F)[nH]c3nc2=O)cc1 [Compound 107],+ (a “+” indicates that the compound has an MIC value of 16 micrograms/ml or less)
18,Cc1c(Cl)cc(CCCCN)cc1-c1cc2cn(-c3ccc(CNCCCNC(=N)N)cc3)c(=O)nc2[nH]1 [Compound 108],+ (a “+” indicates that the compound has an MIC value of 16 micrograms/ml or less)
19,Cc1c(Cl)cc(-c2cc3cn(-c4ccc(CNCCCNC(=N)N)cc4)c(=O)nc3[nH]2)cc1CCCCN [Compound 109],+ (a “+” indicates that the compound has an MIC value of 16 micrograms/ml or less)
20,N=C(N)NCCCNCc1ccc(-n2cc3cc(-c4cc(C5CC5CN)cc(C(F)(F)F)c4)[nH]c3nc2=O)cc1 (stereo not drawn) [Compound 110],+ (a “+” indicates that the compound has an MIC value of 16 micrograms/ml or less)
21,N=C(N)NCCCNCc1ccc(-n2cc3cc(-c4cc(CCCCN)cc(C(F)(F)F)c4F)[nH]c3nc2=O)cc1 [Compound 111],+ (a “+” indicates that the compound has an MIC value of 16 micrograms/ml or less)
22,N=C(N)NCCCNCc1ccc(-n2cc3cc(-c4cc(OC(F)(F)F)cc(C(F)(F)CCCN)c4)[nH]c3nc2=O)cc1 [Compound 112],+ (a “+” indicates that the compound has an MIC value of 16 micrograms/ml or less)
23,N#Cc1cc(CCCCN)cc(-c2cc3cn(-c4ccc(CNCCCNC(=N)N)cc4)c(=O)nc3[nH]2)c1Cl [Compound 114],+ (a “+” indicates that the compound has an MIC value of 16 micrograms/ml or less)
24,N=C(N)NCCCNCc1ccc(-n2cc3cc(-c4cc(CCCCN)cc([N+](=O)[O-])c4Cl)[nH]c3nc2=O)cc1 [Compound 115],+ (a “+” indicates that the compound has an MIC value of 16 micrograms/ml or less)
25,N=C(N)NCCCNCc1ccc(-n2cc3cc(-c4cc(CCC5(CN)CCC5)ccc4F)[nH]c3nc2=O)cc1 [Compound 116],+ (a “+” indicates that the compound has an MIC value of 16 micrograms/ml or less)
26,CC(C)(CN)CCc1ccc(F)c(-c2cc3cn(-c4ccc(CNCCCNC(=N)N)cc4)c(=O)nc3[nH]2)c1 [Compound 117],+ (a “+” indicates that the compound has an MIC value of 16 micrograms/ml or less)
27,N#Cc1cc(-c2cc3cn(-c4ccc(CNCCCNC(=N)N)cc4)c(=O)nc3[nH]2)cc(CCCCN)c1Cl [Compound 118],+ (a “+” indicates that the compound has an MIC value of 16 micrograms/ml or less)
28,Cc1c(-c2cc3cn(-c4ccc(CNCCCNC(=N)N)cc4)c(=O)nc3[nH]2)cc(CCCCN)cc1[N+](=O)[O-] [Compound 120],+ (a “+” indicates that the compound has an MIC value of 16 micrograms/ml or less)
29,Cc1c(CCCCN)cc(-c2cc3cn(-c4ccc(CNCCCNC(=N)N)cc4)c(=O)nc3[nH]2)cc1[N+](=O)[O-] [Compound 121],+ (a “+” indicates that the compound has an MIC value of 16 micrograms/ml or less)
30,N#Cc1cc(CCCCN)cc(-c2cc3cn(-c4ccc(CNCCCNC(=N)N)cc4)c(=O)nc3[nH]2)c1F [Compound 122],+ (a “+” indicates that the compound has an MIC value of 16 micrograms/ml or less)
